For assay [1], the target named is T1, Estrogen receptor (Homo sapiens, UniProt P03372).
T1 sequence (P03372 whole entry): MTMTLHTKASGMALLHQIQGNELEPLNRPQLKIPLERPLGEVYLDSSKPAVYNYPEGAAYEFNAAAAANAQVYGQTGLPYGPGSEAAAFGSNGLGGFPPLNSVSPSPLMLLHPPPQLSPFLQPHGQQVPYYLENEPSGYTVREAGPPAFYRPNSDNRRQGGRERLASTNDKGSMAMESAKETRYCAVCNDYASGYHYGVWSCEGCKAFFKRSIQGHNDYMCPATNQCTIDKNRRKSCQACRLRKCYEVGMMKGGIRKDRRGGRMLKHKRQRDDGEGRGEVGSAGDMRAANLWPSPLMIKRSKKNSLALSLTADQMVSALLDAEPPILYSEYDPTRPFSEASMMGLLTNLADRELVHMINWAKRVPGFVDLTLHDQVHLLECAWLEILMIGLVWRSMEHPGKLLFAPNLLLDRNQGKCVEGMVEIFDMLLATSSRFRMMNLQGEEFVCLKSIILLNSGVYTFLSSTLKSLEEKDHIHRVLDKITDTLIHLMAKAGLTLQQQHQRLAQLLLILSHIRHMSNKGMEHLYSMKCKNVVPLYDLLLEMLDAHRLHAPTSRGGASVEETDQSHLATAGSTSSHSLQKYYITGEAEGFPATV
Description: Binding affinity for Human Estrogen receptor-alpha

The target of assay [2] is Estrogen receptor beta (Rattus norvegicus, UniProt Q62986). In words: Binding affinity foor Rat Estrogen receptor-beta.
Sequence of Estrogen receptor beta (Rattus norvegicus, UniProt Q62986) (Q62986 whole entry): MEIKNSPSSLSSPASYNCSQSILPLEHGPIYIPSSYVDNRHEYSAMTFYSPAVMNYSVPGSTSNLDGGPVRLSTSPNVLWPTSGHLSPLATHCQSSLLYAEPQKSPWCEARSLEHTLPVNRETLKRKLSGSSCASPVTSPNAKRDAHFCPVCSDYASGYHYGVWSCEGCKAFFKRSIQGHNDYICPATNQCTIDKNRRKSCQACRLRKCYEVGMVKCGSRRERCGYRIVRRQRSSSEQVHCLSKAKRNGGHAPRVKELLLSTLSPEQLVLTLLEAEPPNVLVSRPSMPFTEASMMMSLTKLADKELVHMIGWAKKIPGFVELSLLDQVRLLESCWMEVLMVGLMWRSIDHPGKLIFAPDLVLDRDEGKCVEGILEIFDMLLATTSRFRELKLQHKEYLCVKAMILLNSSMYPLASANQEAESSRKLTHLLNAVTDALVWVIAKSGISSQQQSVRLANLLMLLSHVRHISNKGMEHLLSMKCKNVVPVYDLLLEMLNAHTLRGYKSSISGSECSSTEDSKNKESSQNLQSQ
Assay [3] addresses Estrogen receptor beta (Homo sapiens, UniProt Q92731).
Description: Binding affinity for Human Estrogen receptor-beta
Assay [4] has as its target T2, Estrogen receptor (Rattus norvegicus, UniProt P06211).
T2 sequence (P06211 whole entry): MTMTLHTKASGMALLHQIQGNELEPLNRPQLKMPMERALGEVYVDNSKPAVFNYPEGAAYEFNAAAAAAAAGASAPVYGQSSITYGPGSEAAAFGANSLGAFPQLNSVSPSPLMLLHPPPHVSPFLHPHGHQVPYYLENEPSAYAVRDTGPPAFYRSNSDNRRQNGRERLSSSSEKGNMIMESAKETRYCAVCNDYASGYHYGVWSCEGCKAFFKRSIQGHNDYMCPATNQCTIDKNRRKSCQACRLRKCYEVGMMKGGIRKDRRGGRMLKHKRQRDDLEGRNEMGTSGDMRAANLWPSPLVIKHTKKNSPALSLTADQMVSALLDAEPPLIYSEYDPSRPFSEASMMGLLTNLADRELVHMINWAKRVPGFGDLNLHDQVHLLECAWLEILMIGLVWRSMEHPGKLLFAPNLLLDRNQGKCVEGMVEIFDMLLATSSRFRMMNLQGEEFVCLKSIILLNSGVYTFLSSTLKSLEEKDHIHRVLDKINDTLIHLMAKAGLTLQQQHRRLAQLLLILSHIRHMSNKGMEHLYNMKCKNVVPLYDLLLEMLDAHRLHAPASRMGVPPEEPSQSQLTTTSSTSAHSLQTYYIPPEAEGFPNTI
The assay can be described thus: Binding affinity for Rat Estrogen receptor-alpha.

Bounds are passed on as bounds.

Eight compounds from ChEMBL document CHEMBL1136557, “2-Phenylspiroindenes: a novel class of selective estrogen receptor modulators (SERMs)” (Bioorg Med Chem Lett, 2003) can be followed below.

Sequence of Estrogen receptor beta (Homo sapiens, UniProt Q92731) (Q92731 whole entry): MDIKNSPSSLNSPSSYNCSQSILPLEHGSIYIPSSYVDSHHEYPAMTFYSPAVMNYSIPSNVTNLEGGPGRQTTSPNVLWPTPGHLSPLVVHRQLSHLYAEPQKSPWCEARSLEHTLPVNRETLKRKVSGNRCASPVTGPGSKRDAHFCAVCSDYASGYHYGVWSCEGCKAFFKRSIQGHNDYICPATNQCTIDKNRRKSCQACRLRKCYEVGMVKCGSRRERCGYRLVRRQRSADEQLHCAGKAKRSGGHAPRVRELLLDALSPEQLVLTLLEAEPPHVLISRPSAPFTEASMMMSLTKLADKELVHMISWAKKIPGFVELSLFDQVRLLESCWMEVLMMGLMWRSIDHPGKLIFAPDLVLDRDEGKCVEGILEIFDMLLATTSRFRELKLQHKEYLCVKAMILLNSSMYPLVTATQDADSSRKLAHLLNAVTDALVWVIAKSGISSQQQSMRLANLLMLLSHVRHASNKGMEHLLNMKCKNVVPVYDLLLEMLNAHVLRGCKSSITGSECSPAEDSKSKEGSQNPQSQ

Turning to `Oc1cccc(C2=Cc3ccc(O)cc3C23Cc2ccccc2C3)c1`, the IC50 at Estrogen receptor [1] came to 31 nM; on Estrogen receptor beta [2] it was 15 nM; on Estrogen receptor beta [3] it was 12 nM; at Estrogen receptor [4] it was 16 nM.
Regarding `Oc1ccc2c(c1)C=C(c1ccccc1)C21Cc2ccccc2C1`, the IC50 against Estrogen receptor [1] was determined as 24 nM; on Estrogen receptor beta [3], 21 nM.
Take `CC1=C(c2ccc(O)cc2)C2(Cc3ccccc3C2)c2ccc(O)cc21`: the half-maximal inhibitory concentration (IC50) stood at 19 nM on Estrogen receptor [1], 1.2 nM at Estrogen receptor beta [2], 5.9 nM at Estrogen receptor beta [3] and 2.2 nM at Estrogen receptor [4].
As for `Oc1cccc(C2=Cc3cc(O)ccc3C23Cc2ccccc2C3)c1`, the IC50 on Estrogen receptor [1] is 28 nM; at Estrogen receptor beta [2], 29 nM; on Estrogen receptor beta [3], 23 nM; at Estrogen receptor [4], 34 nM.
Turning to `Oc1ccc(C2=Cc3cc(O)ccc3C23Cc2ccc(OCCN4CCCCC4)cc2C3)cc1` (centres undefined), the IC50 against Estrogen receptor [1] was 1 nM; on Estrogen receptor beta [2], 2.7 nM; against Estrogen receptor beta [3] it was 1.9 nM; at Estrogen receptor [4], 1.7 nM.
In the case of `Oc1ccc(C2=Cc3cc(O)ccc3C23Cc2ccccc2C3)cc1`, the IC50 came to 4.3 nM against Estrogen receptor [1], 1.1 nM at Estrogen receptor beta [2] and 2.1 nM at Estrogen receptor beta [3].
Take `C1=C(c2ccccc2)C2(Cc3ccccc3C2)c2ccccc21`: the IC50 against Estrogen receptor [1], at Estrogen receptor beta [2], against Estrogen receptor beta [3] and at Estrogen receptor [4] was > 10000 nM each time.
For `Oc1ccc2c(c1)CC1(C2)C(c2ccccc2)=Cc2ccccc21` (centres undefined), the IC50 against Estrogen receptor [1] was determined as 58 nM; on Estrogen receptor beta [2], 1070 nM; at Estrogen receptor beta [3], 429 nM; on Estrogen receptor [4] it was 114 nM.
